According to ChEMBL document CHEMBL2046380, “Synthesis and structure-activity relationship of disubstituted benzamides as a novel class of antimalarial agents” (Bioorg Med Chem Lett, 2012):

Legend:
BJ = experiment: Cytotoxicity against human BJ cells after 72 hrs by […] CellTiterGlo reagent assay; type: cell-based
Plasmodium falciparum [1] = experiment: Antimalarial activity against […] incubated for 72 hrs by DNA staining based MARK1 growth inhibition assay; type: functional, organism-based
Raji = experiment: Cytotoxicity against human Raji cells after 72 hrs by […] CellTiterGlo reagent assay; type: cell-based
Plasmodium falciparum [2] = experiment: Antimalarial activity against chloroquine-sensitive Plasmodium falciparum 3D7 incubated for 72 hrs by DNA staining based MAR3D7 growth inhibition assay; type: functional, organism-based; settings: 3D7, 72 h
HEK293 = experiment: Cytotoxicity against human HEK293 cells after 72 hrs by […] CellTiterGlo reagent assay; type: cell-based; settings: HEK293, 72 h
HepG2 = experiment: Cytotoxicity against human HepG2 cells after 72 hrs by […] CellTiterGlo reagent assay; type: cell-based; settings: HepG2, 72 h

Compound	EC50 (BJ) [µM]	EC50 (Plasmodium falciparum [1]) [µM]	EC50 (Raji) [µM]	EC50 (Plasmodium falciparum [2]) [µM]	EC50 (HEK293) [µM]	EC50 (HepG2) [µM]
CC(C)N(Cc1cccc(OCCCCCC(=O)O)c1)C(=O)c1ccc(-c2cccc([N+](=O)[O-])c2)cc1	> 26	> 15	> 26	< 0.0004	> 26	> 26
O=C(Nc1ccc2c(c1)OCO2)c1cc(-c2cccs2)nc2ccccc12	> 26	> 15	> 26	> 15	> 26	> 26
CCOC(=O)CCCCCOc1cccc(CN(C(=O)c2ccc(-c3cccc(OC)c3)cc2)C(C)C)c1	> 21.1	> 11.7	> 21	> 11.7	> 21.1	> 21.1
CCOC(=O)CCCCCOc1cccc(CN(C(=O)c2ccc(-c3cccc(Cl)c3)cc2)C(C)C)c1	> 18.5	> 10.2	> 18.5	> 10.2	> 18.5	> 18.5
CCOC(=O)CCCCCOc1cccc(CN(C(=O)c2ccc(-c3cccc(CC(=O)O)c3)cc2)C(C)C)c1	> 26	> 15	> 26	> 15	> 26	> 26
CC(C)N(Cc1cccc(OCCCCCC(=O)O)c1)C(=O)c1ccc(-c2ccsc2)cc1	> 26	> 15	> 26	> 15	> 26	> 26
CCCNCc1cccc(OCCCCCC(=O)OCC)c1	> 26	> 15	> 26	> 15	> 26	> 26
COc1cccc(-c2ccc(C(=O)N(Cc3cccc(OCCCCCC(=O)O)c3)C(C)C)cc2)c1	> 21	> 11.6	> 21	> 11.6	> 21	> 26
CCOC(=O)CCCCCOc1ccc(C=O)cc1	> 26	> 15	> 26	0.0584	> 26	> 26
CCOC(=O)CCCCCOc1cccc(CN(C(=O)c2ccc(-c3ccco3)cc2)C(C)C)c1	> 26	> 15	> 26	> 15	> 26	> 26
CCOC(=O)CCCCCOc1cccc(CN(C(=O)c2ccc(-c3cc4ccccc4n3S(=O)(=O)c3ccccc3)cc2)C(C)C)c1	> 26	> 15	> 26	> 15	> 26	> 26
CCOC(=O)CCCCCOc1cccc(CN(C(=O)c2ccc(-c3cccc(Oc4ccccc4)c3)cc2)C(C)C)c1	> 19.7	> 10.9	> 19.7	> 10.9	> 19.7	> 26
[N-]=[N+]=NC[C@H](O)c1ccc2c(c1)OCO2	> 13	> 7.51	> 13	> 7.51	> 13	> 13
CCOC(=O)CCCCCOc1cccc(CN(C(=O)c2ccc(-c3ccc(Cl)c(Cl)c3)cc2)C(C)C)c1	> 26	> 15	> 26	> 15	> 26	> 26
C=CCCC1=NCCc2cc(OC)c(OC)cc21	> 13	> 7.51	> 13	> 7.51	> 13	> 13
COc1ccc(C(=O)C(Br)N=[N+]=[N-])cc1OC (stereo not drawn)	> 13	> 7.51	> 13	> 7.51	> 13	> 13
CC(C)N(Cc1cccc(OCCCCCC(=O)O)c1)C(=O)c1ccc(-c2cccc(Cl)c2)cc1	> 21.9	> 12.1	> 21.9	> 12.1	> 21.9	> 21.9
CCOC(=O)CCCCCOc1ccccc1C=O	> 26	> 15	> 26	> 15	> 26	> 26
CC(C)N(Cc1cccc(OCCCCCC(=O)O)c1)C(=O)c1ccc(-c2ccoc2)cc1	> 26	> 15	> 26	> 15	> 26	> 26
CCOC(=O)CCCCCOc1cccc(CN(C(=O)c2ccc(-c3cccc(CC#N)c3)cc2)C(C)C)c1	> 26	> 15	> 26	> 15	> 26	> 26
CCOC(=O)CCCCCOc1cccc(CN(C(=O)c2ccc(-c3cccc(NC(C)=O)c3)cc2)C(C)C)c1	> 26	> 15	> 26	> 15	> 26	> 26
CCOC(=O)CCCCCOc1cccc(CN(C(=O)c2ccc(-c3cc(OC)cc(OC)c3)cc2)C(C)C)c1	> 26	> 15	> 26	> 15	> 26	> 26
CC(C)N(Cc1cccc(OCCCCCC(=O)O)c1)C(=O)c1ccc(-c2cccc(OCc3ccccc3)c2)cc1	> 26	> 15	> 26	> 15	> 26	> 26
CCOC(=O)CCCCCOc1cccc(CN(C(=O)c2ccc(-c3ccc4ccccc4c3)cc2)C(C)C)c1	> 26	> 15	> 26	> 15	> 26	> 26
CC(C)N(Cc1cccc(OCCCCCC(=O)O)c1)C(=O)c1ccc(-c2cccc(Oc3ccccc3)c2)cc1	> 18.8	> 10.4	> 18.8	> 10.4	> 18.8	> 18.8
O=C(O)c1cc(-c2ccco2)nc2ccccc12	> 26	> 15	> 26	> 15	> 26	> 26
CC(C)N(Cc1cccc(OCCCCCC(=O)O)c1)C(=O)c1ccc(-c2ccc3c(c2)OCCO3)cc1	> 21.9	> 12.1	> 21.9	> 12.1	> 21.9	> 21.9
CCOC(=O)CCCCCOc1cccc(CN(C(=O)c2ccc(-c3ccc4c(c3)OCO4)cc2)C(C)C)c1	> 22.6	> 12.5	> 22.6	> 12.5	> 22.6	> 22.6
